Source: patent publication US20260365641A1, “Aromatic Acetylene Derivative, Preparation Method Therefor, And Use Thereof” (Zhejiang Hisun Pharmaceutical Co., Ltd., priority 2022, published 2026)
≈ marks a conversion by molar mass, not a printed value.

Target: T1, recombinant Pseudomonas aeruginosa LpxC (Pseudomonas aeruginosa, UniProt P47205)
T1 construct: purchased Signalway Antibody AP74647-2
T1 sequence (P47205 1-303): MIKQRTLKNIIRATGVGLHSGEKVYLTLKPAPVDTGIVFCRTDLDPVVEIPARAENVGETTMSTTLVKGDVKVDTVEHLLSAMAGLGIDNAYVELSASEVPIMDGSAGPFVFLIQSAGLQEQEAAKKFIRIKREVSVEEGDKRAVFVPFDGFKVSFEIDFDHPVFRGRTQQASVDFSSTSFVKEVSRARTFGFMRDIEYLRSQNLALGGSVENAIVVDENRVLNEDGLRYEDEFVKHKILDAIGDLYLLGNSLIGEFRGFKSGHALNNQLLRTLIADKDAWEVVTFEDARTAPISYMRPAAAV
Assay: Inhibition of enzymatic activity of recombinant Pseudomonas aeruginosa LpxC in vitro
Assay type: biochemical
Settings: 5 nM LpxC; substrate UDP-3-O—(R-3-hydroxydecanoyl)-GlcNAc; 25 °C, 120 minutes; fluorescamine readout
Description: The following method was used to determine degrees of inhibition of the compounds of the present invention on the enzymatic activity of recombinant Pseudomonas aeruginosa LpxC in vitro.
The test process was briefly described as follows: the tested compound was first dissolved in DMSO to prepare a 10 mM storage solution. The reaction was carried out in a 96-well microplate. Firstly, 20 μL of recombinant Pseudomonas aeruginosa LpxC (purchased from Signalway Antibody, article number AP74647-2) was added into the wells, and the final concentrations were 5 nM respectively. 5 μL of the compound to be tested was added, diluted in 4-fold, with 8 concentration points, and the concentration range was 0.61-10000 nM. 5 μL of LpxC substrate UDP-3-O—(R-3-hydroxydecanoyl)-GlcNAc (purchased from Biosynth Carbosynth, article number mu75071) was added, wherein a final concentration of the substrate was […], and the substrate was incubated at 25 °C for 120 minutes. Subsequently, 20 μL of 2.0 mg/mL fluorescamine (purchased from sigma aldrich, article number F9015, wherein a solvent was dimethylformamide/acetonitrile (1:1)) was added to the reaction system, mixed evenly and reacted for 10 minutes. Finally, 50 μL of 200 mM sodium phosphate buffer solution (pH 8.0) was added to stop the reaction, and a microplate reader (BMG) was used for reading. An excitation wavelength and an emission wavelength were 390 nm and 495 nm respectively. Compared with the fluorescence intensity ratio of a control group (0.1% DMSO), the percentage inhibition rates of the compounds at each concentration were calculated, and the IC50 values of the compounds were obtained by performing nonlinear regression analysis with logarithmic value of the compound concentration-inhibition rate by GraphPad Prism 5 software, which can be seen in Table 1.

SMILES	IC50 [µM]
C[C@H](O)c1nccn1Cc1cc(-c2ccc(C#CC3CC4(CCN(C(=O)CC(=O)O)CC4)C3)cc2)on1 [Example 14, (S)-3-(2-((4-(3-((2-(1-hydroxyethyl)-1H-imidazol-1-yl)methyl)isoxazol-5-yl)phenyl)ethynyl)-7-azaspiro[3.5]nonan-7-yl)-3-oxopropanoic acid]	0.00681
C[C@H](O)c1nccn1Cc1cc(-c2ccc(C#CC3CC4(CCNCC4)C3)cc2)on1 [Example 1, (S)-1-(1-((5-(4-((7-azaspiro[3.5]nonan-2-yl)ethynyl)phenyl)isoxazol-3-yl)methyl)-1H-imidazol-2-yl)ethan-1-ol]	0.00946
C[C@H](O)c1nccn1Cc1cc(-c2ccc(C#CC3CC4(CCN(CCCC(=O)O)C4)C3)cc2)on1 (stereo partly drawn) [Example 4, (S)-4-(2-((4-(3-((2-(1-hydroxyethyl)-1H-imidazol-1-yl)methyl)isoxazol-5-yl)phenyl)ethynyl)-6-azaspiro[3.4]octan-6-yl)butanoic acid]	0.0234
C[C@H](O)c1nccn1Cc1cc(-c2ccc(C#CC3CC4(C3)CN(C(=O)N3CCC(O)CC3)C4)cc2)on1 [Example 51, (S)-(6-((4-(3-((2-(1-hydroxyethyl)-1H-imidazol-1-yl)methyl)isoxazol-5-yl)phenyl)ethynyl)-2-azaspiro[3.3]heptan-2-yl)(4-hydroxypiperidin-1-yl)methanone]	0.0151
C[C@H](O)c1nccn1Cc1cc(-c2ccc(C#CC3CC4(C3)CN(Cc3ncc[nH]3)C4)cc2)on1 [Example 46, (S)-1-(1-((5-(4-((2-((1H-imidazol-2-yl)methyl)-2-azaspiro[3.3]heptan-6-yl)ethynyl)phenyl)isoxazol-3-yl)methyl)-1H-imidazol-2-yl)ethan-1-ol]	0.0215
C[C@H](O)c1nccn1Cc1cc(-c2ccc(C#CC3CC4(CCN(CCCC(N)=O)CC4)C3)cc2)on1 [Example 8, (S)-4-(2-((4-(3-((2-(1-hydroxyethyl)-1H-imidazol-1-yl)methyl)isoxazol-5-yl)phenyl)ethynyl)-7-azaspiro[3.5]nonan-7-yl)butanamide]	0.0193
C[C@H](O)c1nccn1Cc1cc(-c2ccc(C#CC3CC4(CCN(CCO)CC4)C3)cc2)on1 [Example 11, (S)-2-(2-((4-(3-((2-(1-hydroxyethyl)-1H-imidazol-1-yl)methyl)isoxazol-5-yl)phenyl)ethynyl)-7-azaspiro[3.5]nonan-7-yl)ethan-1-ol]	0.00866
C[C@H](O)c1nccn1Cc1cc(-c2ccc(C#CC3CC4(CCN(C(=O)CO)C4)C3)cc2)on1 (stereo partly drawn) [Example 28, (S)-2-hydroxy-1-(2-((4-(3-((2-(1-hydroxyethyl)-1H-imidazol-1-yl)methyl)isoxazol-5-yl)phenyl)ethynyl)-6-azaspiro[3.4]octan-6-yl)ethan-1-one]	0.0141
C[C@H](O)c1nccn1Cc1cc(-c2ccc(C#CC3CC4(CCN(C(=O)CN)CC4)C3)cc2)on1 [Example 16, (S)-2-amino-1-(2-((4-(3-((2-(1-hydroxyethyl)-1H-imidazol-1-yl)methyl)isoxazol-5-yl)phenyl)ethynyl)-7-azaspiro[3.5]nonan-7-yl)ethan-1-one]	0.0103
C[C@H](O)c1nccn1Cc1cc(-c2ccc(C#CC3CC4(CCN(C5CNC5)CC4)C3)cc2)on1 [Example 30, (S)-1-(1-((5-(4-((7-(azetidin-3-yl)-7-azaspiro[3.5]nonan-2-yl)ethynyl)phenyl)isoxazol-3-yl)methyl)-1H-imidazol-2-yl)ethan-1-ol]	0.0162
C[C@H](O)c1nccn1Cc1cc(-c2ccc(C#CC3CC4(CCN(CCC(N)=O)CC4)C3)cc2)on1 [Example 9, (S)-3-(2-((4-(3-((2-(1-hydroxyethyl)-1H-imidazol-1-yl)methyl)isoxazol-5-yl)phenyl)ethynyl)-7-azaspiro[3.5]nonan-7-yl)propanamide]	0.0188
C[C@H](O)c1nccn1Cc1cc(-c2ccc(C#CC3CC4(CCN(CC(=O)O)CC4)C3)cc2)on1 [Example 10, (S)-2-(2-((4-(3-((2-(1-hydroxyethyl)-1H-imidazol-1-yl)methyl)isoxazol-5-yl)phenyl)ethynyl)-7-azaspiro[3.5]nonan-7-yl)acetic acid]	0.0228
C[C@H](O)c1nccn1Cc1cc(-c2ccc(C#CC3CC4(C3)CN(C(=O)NCCO)C4)cc2)on1 [Example 50, (S)-N-(2-hydroxyethyl)-6-((4-(3-((2-(1-hydroxyethyl)-1H-imidazol-1-yl)methyl)isoxazol-5-yl)phenyl)ethynyl)-2-azaspiro[3.3]heptane-2-carboxamide]	0.0235
C[C@H](O)c1nccn1Cc1cc(-c2ccc(C#CC3CC4(C3)CN(C(=O)CC#N)C4)cc2)on1 [Example 32, (S)-3-(6-((4-(3-((2-(1-hydroxyethyl)-1H-imidazol-1-yl)methyl)isoxazol-5-yl)phenyl)ethynyl)-2-azaspiro[3.3]heptan-2-yl)-3-oxopropanenitrile]	0.0225
C[C@H](O)c1nccn1Cc1cc(-c2ccc(C#CC3CC4(CCN(CCC(=O)O)CC4)C3)cc2)on1 [Example 5, (S)-3-(2-((4-(3-((2-(1-hydroxyethyl)-1H-imidazol-1-yl)methyl)isoxazol-5-yl)phenyl)ethynyl)-7-azaspiro[3.5]nonan-7-yl)propanoic acid]	0.00703
C[C@H](O)c1nccn1Cc1cc(-c2ccc(C#CC3CC4(CCN(C(=O)CC(N)=O)CC4)C3)cc2)on1 [Example 15, (S)-3-(2-((4-(3-((2-(1-hydroxyethyl)-1H-imidazol-1-yl)methyl)isoxazol-5-yl)phenyl)ethynyl)-7-azaspiro[3.5]nonan-7-yl)-3-oxopropanamide]	0.00442
C[C@H](O)c1nccn1Cc1cc(-c2ccc(C#CC3CC4(CCN(C(=O)[C@@H](N)CO)CC4)C3)cc2)on1 [Example 18, (S)-2-amino-3-hydroxy-1-(2-((4-(3-((2-((S)-1-hydroxyethyl)-1H-imidazol-1-yl)methyl)isoxazol-5-yl)phenyl)ethynyl)-7-azaspiro[3.5]nonan-7-yl)propan-1-one]	0.00442
C[C@H](O)c1nccn1Cc1cc(-c2ccc(C#CC3CC4(C3)CN(C(=O)C3CCNC(=O)C3)C4)cc2)on1 (stereo partly drawn) [Example 54, 4-(6-((4-(3-((2-((S)-1-hydroxyethyl)-1H-imidazol-1-yl)methyl)isoxazol-5-yl)phenyl)ethynyl)-2-azaspiro[3.3]heptane-2-carbonyl)piperidin-2-one]	0.0155
C[C@H](O)c1nccn1Cc1cc(-c2ccc(C#CC3CC4(CCN(C(N)=O)C4)C3)cc2)on1 (stereo partly drawn) [Example 24, (S)-2-((4-(3-((2-(1-hydroxyethyl)-1H-imidazol-1-yl)methyl)isoxazol-5-yl)phenyl)ethynyl)-6-azaspiro[3.4]octane-6-carboxamide]	0.0069

Tested on: E. coli ATCC 25922
Assay: Antibacterial activity, minimum inhibitory concentration (MIC) in vitro, broth dilution
Assay type: cell-based
Settings: Escherichia coli, ATCC25922, 5×10^5 cfu/mL, 35 °C, 18-24 hours
Description: (§1) The minimum inhibitory concentration (MIC) in vitro was determined according to CLSI's guidelines, and a minimal broth dilution method was used.
(§2) The test process was briefly described as follows: the tested compound was dissolved in DMSO to prepare a storage solution of […], and then prepared into 11 two-fold-diluted 100× high-concentration working liquids (a final concentration of the system was 64 μg/mL to 0.06 μg/mL) by DMSO. Stains (K. pneumoniae ATCC13883, K. pneumoniae ATCC51504 and E. coli ATCC 25922) frozen at −80 °C with glycerin were inoculated to a solid agar culture medium, placed into an incubator for culturing for 18-24 hours at 35 °C to finish the preparation work of the strains. A proper amount of solid plate culture was collected, re-suspended in normal saline, and uniformly mixed. The turbidity of the bacterial suspension was adjusted to a proper turbidity by a turbidity meter, containing about 1×10^8 cfu/mL of bacteria. Then, the turbidity-regulated bacterial suspension was diluted with a test culture medium (type: CAMHIIB, purchased from BD company) to a bacterial concentration of 5×10^5 cfu/mL, thus finishing the preparation of an inoculation solution. 198 μL of the inoculation solution was inoculated into a 96-well plate, and added with 2 μL 100× high concentration working liquid of the compound, then the 96-well plate was placed at 35 °C for culturing for 18-24 hours.

SMILES	MIC [µg/mL]
C[C@H](O)c1nccn1Cc1cc(-c2ccc(C#CC3=CCN(C(=O)Cn4cncn4)CC3)cc2)on1 [Example 37, (S)-1-(4-((4-(3-((2-(1-hydroxyethyl)-1H-imidazol-1-yl)methyl)isoxazol-5-yl)phenyl)ethynyl)-3,6-dihydropyridin-1(2H)-yl)-2-(1H-1,2,4-triazol-1-yl)ethan-1-one]	2 (≈ 4.14 µM)
C[C@H](O)c1nccn1Cc1cc(-c2ccc(C#CC3=CCN(C(=O)C4COCCN4)CC3)cc2)on1 (stereo partly drawn) [Example 42, (4-((4-(3-((2-((S)-1-hydroxyethyl)-1H-imidazol-1-yl)methyl)isoxazol-5-yl)phenyl)ethynyl)-3,6-dihydropyridin-1(2H)-yl)(morpholin-3-yl)methanone]	4 (≈ 8.2 µM)

Tested on: K. pneumoniae ATCC51504
Assay: as above
Assay type: cell-based
Settings: Klebsiella pneumoniae, 5×10^5 cfu/mL, 35 °C, 18-24 hours
Description: as §1, §2

SMILES	MIC [µg/mL]
C[C@H](O)c1nccn1Cc1cc(-c2ccc(C#CC3=CCN(C(=O)Cn4cncn4)CC3)cc2)on1 [Example 37, (S)-1-(4-((4-(3-((2-(1-hydroxyethyl)-1H-imidazol-1-yl)methyl)isoxazol-5-yl)phenyl)ethynyl)-3,6-dihydropyridin-1(2H)-yl)-2-(1H-1,2,4-triazol-1-yl)ethan-1-one]	2 (≈ 4.14 µM)
C[C@H](O)c1nccn1Cc1cc(-c2ccc(C#CC3=CCN(C(=O)C4COCCN4)CC3)cc2)on1 (stereo partly drawn) [Example 42, (4-((4-(3-((2-((S)-1-hydroxyethyl)-1H-imidazol-1-yl)methyl)isoxazol-5-yl)phenyl)ethynyl)-3,6-dihydropyridin-1(2H)-yl)(morpholin-3-yl)methanone]	2 (≈ 4.1 µM)
